# Earlier results, collected in patent US20230048954A1, “COMPOSITIONS FOR REMOVING NECROTIC OR INFECTED TISSUES FROM BODY SURFACE LESIONS” (priority 2020, published 2023).
# Details: at a temperature of 25° C.
row,SMILES,pKa
1,CCCS(=O)(=O)O [1-Propanesulfonic acid],−0.86
2,O=[N+]([O-])O [Nitric],−1.4
